In publication PMC1382195 (The Journal of General Physiology, 2005):

Experiments:
[1] = target: T1, cystic fibrosis transmembrane conductance regulator (ΔR-CFTR) (Homo sapiens, UniProt P13569, DEL634-836); test: excised inside-out patch-clamp; type: biochemical
[2] = target: T1, cystic fibrosis transmembrane conductance regulator (ΔR-CFTR); test: excised inside-out patch-clamp, single-channel Po versus [ATP]; type: biochemical

T1 sequence (P13569 1-633, stated change not applied): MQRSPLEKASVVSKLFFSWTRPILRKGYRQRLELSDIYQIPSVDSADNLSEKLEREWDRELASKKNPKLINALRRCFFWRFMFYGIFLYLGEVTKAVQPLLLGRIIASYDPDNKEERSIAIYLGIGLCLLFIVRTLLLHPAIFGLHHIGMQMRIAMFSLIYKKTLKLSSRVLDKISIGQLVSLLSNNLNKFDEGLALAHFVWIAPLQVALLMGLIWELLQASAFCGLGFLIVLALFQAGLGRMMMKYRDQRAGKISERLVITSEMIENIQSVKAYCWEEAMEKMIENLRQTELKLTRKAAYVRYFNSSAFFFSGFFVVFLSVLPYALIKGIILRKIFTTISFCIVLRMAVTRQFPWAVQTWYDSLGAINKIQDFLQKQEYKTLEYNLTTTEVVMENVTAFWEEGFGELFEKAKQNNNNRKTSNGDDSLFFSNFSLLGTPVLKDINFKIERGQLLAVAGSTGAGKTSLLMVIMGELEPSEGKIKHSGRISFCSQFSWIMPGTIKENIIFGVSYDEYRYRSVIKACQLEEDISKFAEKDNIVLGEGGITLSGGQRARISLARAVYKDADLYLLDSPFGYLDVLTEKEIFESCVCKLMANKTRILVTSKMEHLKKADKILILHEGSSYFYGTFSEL
T1 sequence (P13569 837-1480, stated change not applied): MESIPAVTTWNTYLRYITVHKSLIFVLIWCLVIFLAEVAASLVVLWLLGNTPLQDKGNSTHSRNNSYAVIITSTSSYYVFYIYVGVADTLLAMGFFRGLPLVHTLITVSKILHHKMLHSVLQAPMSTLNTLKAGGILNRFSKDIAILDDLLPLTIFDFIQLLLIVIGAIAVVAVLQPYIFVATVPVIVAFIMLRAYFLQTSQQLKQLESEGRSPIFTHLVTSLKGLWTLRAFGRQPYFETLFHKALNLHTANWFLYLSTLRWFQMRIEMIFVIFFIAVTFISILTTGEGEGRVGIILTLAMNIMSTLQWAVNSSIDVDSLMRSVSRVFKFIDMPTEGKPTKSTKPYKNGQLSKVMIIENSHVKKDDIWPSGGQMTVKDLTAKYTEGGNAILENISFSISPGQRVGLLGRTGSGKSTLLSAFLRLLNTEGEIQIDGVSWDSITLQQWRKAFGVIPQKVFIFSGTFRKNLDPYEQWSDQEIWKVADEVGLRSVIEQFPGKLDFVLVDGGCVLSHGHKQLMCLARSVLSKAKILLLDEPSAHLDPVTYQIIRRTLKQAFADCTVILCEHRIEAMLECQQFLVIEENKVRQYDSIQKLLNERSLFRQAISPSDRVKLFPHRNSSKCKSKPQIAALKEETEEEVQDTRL

Structure (SMILES) | Ki [1] [µM] | EC50 [2] [µM]
Nc1ncnc2c1ncn2[C@@H]1O[C@H](COP(=O)(O)OP(=O)(O)O)[C@@H](O)[C@H]1O [ADP] | 26.3 ± 5.1 | 
Nc1ncnc2c1ncn2[C@@H]1O[C@H](COP(=O)(O)OP(=O)(O)OP(=O)(O)O)[C@@H](O)[C@H]1O [ATP] |  | 89 ± 25
